Results as given in patent publication US5624961A, “Benzylaminoethoxybenzene derivatives, production thereof and use thereof” (priority 1994, dated 1997).
Where a name gives a salt, the structure may show the parent alone.

The compounds below were run on rabbit (assay: Orthostatic hypotensive effect, tilting of unanesthetized rabbit, orthostatic index (O.I.)). Settings: iv, tilted 90°, without anesthetization.
Format: in vivo
Source text: Orthostatic hypotensive effect
The orthostatic hypotensive effect was examined by the following method which is in accordance with the method of Journal of Pharmacological Methods, vol. 5, p. 53 (1981). A rabbit was fixed at the dorsal position without anesthetization on an orthostatic hypotension measurement apparatus. Polyethylene catheters were inserted in right femoral artery and right femoral vein, and the catheter inserted in the artery was connected to a pressure transducer. The head of the rabbit was tilted rapidly at an angle of 90° from the horizontal position at 15 min intervals with the heart position as a rotational axis, and brought back to the horizontal position one minute later. The tilting was repeated three times, and after confirmation of occurrence of a constant response, a drug was administered from the polyethylene catheter inserted in the vein. […] [formula] (2) Test results

Row | Compound | Dose necessary for O.I. value to achieve 90%
1 | COc1c(C)c(C)c(OC)c(CN(C)CCOc2cc(C)c(O)cc2C(C)C)c1C [Ex. 28, N-(2,5-dimethoxy-3,4,6-trimethylbenzyl)-N-methyl-2-(4-hydroxy-2-isopropyl-5-methylphenoxy)ethylamine] | 40.3 μg/kg, iv
2 | COc1c(C)c(C)c(O)c(C)c1CN(C)CCOc1cc(C)c(O)cc1C(C)C [Ex. 1, N-(3-hydroxy-6-methoxy-2,4,5-trimethylbenzyl)-N-methyl-2-(4-hydroxy-2-isopropyl-5-methylphenoxy)ethylamine] | 56.4 μg/kg, iv
3 | COc1cc2nc(N3CCN(C(=O)c4ccco4)CC3)nc(N)c2cc1OC [prazosin hydrochloride, reference compound] | 5.6 μg/kg, iv
4 | CCOc1c(C)c(C)c(O)c(C)c1CN(C)CCOc1cc(C)c(O)cc1C(C)C [Ex. 4, N-(2-ethoxy-5-hydroxy-3,4,6-trimethylbenzyl)-N-methyl-2-(4-hydroxy-2-isopropyl-5-methylphenoxy)ethylamine] | 61.3 μg/kg, iv
5 | COc1c(C)c(C)c(O)c(C)c1CNCCOc1cc(C)c(O)cc1C(C)C [Ex. 21, N-(3-hydroxy-6-methoxy-2,4,5-trimethylbenzyl)-2-(4-hydroxy-2-isopropyl-5-methylphenoxy)ethylamine] | 32.8 μg/kg, iv

These compounds were tested on α1 -adrenoceptor (assay: α1-adrenoceptor blocking effect, preparation from the thoracic aorta of rabbit, Magnus method). Settings: not given.
Format: cell-based
Protocol: Blocking of α1 -adrenoceptor
The α1 -adrenoceptor blocking effect was determined using a preparation from the thoracic aorta of rabbit, according to the Magnus method and expressed as pA2 value.

Row | Compound | pA2 value
6 | COCCOc1c(C)c(C)c(O)c(C)c1CN(C)CCOc1cc(C)c(O)cc1C(C)C [Ex. 29, N-{3-hydroxy-6-(2-methoxyethoxy)-2,4,5-trimethylbenzyl}-N-methyl-2-(4-hydroxy-2-isopropyl-5-methylphenoxy)ethylamine] | 8.2
7 | CC(=O)Oc1c(C)c(C)c(O)c(CN(C)CCOc2cc(C)c(O)cc2C(C)C)c1C [Ex. 27, N-(3-acetoxy-6-hydroxy-2,4,5-trimethylbenzyl)-N-methyl-2-(4-hydroxy-2-isopropyl-5-methylphenoxy)ethylamine] | 8.1
8 | COc1c(C)c(C)c(OC)c(CN(C)CCOc2cc(C)c(N)cc2C(C)C)c1C [Ex. 11, N-(2,5-dimethoxy-3,4,6-trimethylbenzyl)-N-methyl-2-(4-amino-2-isopropyl-5-methylphenoxy)ethylamine] | 8.3
9 | CCOc1c(C)c(C)c(OC)c(CN(C)CCOc2cc(C)ccc2C(C)C)c1C [Ex. 15, N-(3-ethoxy-6-methoxy-2,4,5-trimethylbenzyl)-N-methyl-2-(2-isopropyl-5-methylphenoxy)ethylamine] | 7.5
10 | C=CCOc1c(C)c(C)c(OC(C)=O)c(C)c1CN(C)CCOc1cc(C)ccc1C(C)C [Ex. 17, N-{3-acetoxy-6-(2-propenyloxy)-2,4,5-trimethylbenzyl}-N-methyl-2-(2-isopropyl-5-methylphenoxy)ethylamine] | 7.4
11 | COc1cc(C(C)C)c(OCCN(C)Cc2c(C)c(OC)c(C)c(C)c2OC)cc1C [Ex. 32, N-(2,5-dimethoxy-3,4,6-trimethylbenzyl)-N-methyl-2-(2-isopropyl-4-methoxy-5-methylphenoxy)ethylamine] | 7.2
12 | CCN(CCOc1cc(C)c(Cl)cc1C(C)C)Cc1c(C)c(OC(C)=O)c(C)c(C)c1OC(C)C [Ex. 18, N-(3-acetoxy-6-isopropoxy-2,4,5-trimethylbenzyl)-N-ethyl-2-(4-chloro-2-isopropyl-5-methylphenoxy)ethylamine] | 7.2
13 | CCN(CCOc1cc(C)c(O)cc1C(C)C)Cc1c(C)c(O)c(C)c(C)c1OC [Ex. 31, N-ethyl-N-(3-hydroxy-6-methoxy-2,4,5-trimethylbenzyl)-2-(4-hydroxy-2-isopropyl-5-methylphenoxy)ethylamine] | 8.6
14 | CCCCOc1c(C)c(C)c(O)c(C)c1CN(C)CCOc1cc(C)c(O)cc1C(C)C [Ex. 26, N-(2-butoxy-5-hydroxy-3,4,6-trimethylbenzyl)-N-methyl-2-(4-hydroxy-2-isopropyl-5-methylphenoxy)ethylamine] | 8.3
15 | CCOc1c(C)c(C)c(O)c(CNCCOc2cc(C)ccc2C(C)C)c1C [Ex. 19, N-(3-ethoxy-6-hydroxy-2,4,5-trimethylbenzyl)-2-(2-isopropyl-5-methylphenoxy)ethylamine] | 7.3
16 | COc1c(C)c(C)c(OC)c(CN(C)CCOc2cc(C)c(O)cc2C(C)C)c1C [Ex. 28, N-(2,5-dimethoxy-3,4,6-trimethylbenzyl)-N-methyl-2-(4-hydroxy-2-isopropyl-5-methylphenoxy)ethylamine] | 9.0
17 | CCN(CC)CCN(CCOc1cc(C)ccc1C(C)C)Cc1c(C)c(O)c(C)c(C)c1OC [Ex. 6, N-(2-diethylaminoethyl)-N-(3-hydroxy-6-methoxy-2,4,5-trimethylbenzyl)-2-(2-isopropyl-5-methylphenoxy)ethylamine] | 7.5
18 | COc1c(C)c(C)c(O)c(C)c1CN(C)CCOc1cc(C)c(O)cc1C(C)C [Ex. 1, N-(3-hydroxy-6-methoxy-2,4,5-trimethylbenzyl)-N-methyl-2-(4-hydroxy-2-isopropyl-5-methylphenoxy)ethylamine] | 9.0
19 | CCN(CCOc1cc(C)c(Cl)cc1C(C)C)Cc1c(C)c(O)c(C)c(C)c1OC [Ex. 7, N-ethyl-N-(3-hydroxy-6-methoxy-2,4,5-trimethylbenzyl)-2-(4-chloro-2-isopropyl-5-methylphenoxy)ethylamine] | 7.7
20 | COc1cc2nc(N3CCN(C(=O)c4ccco4)CC3)nc(N)c2cc1OC [prazosin hydrochloride, reference compound] | 8.6
21 | COc1c(C)c(C)c(O)c(C)c1CN(CCOc1cc(C)c(O)cc1C(C)C)C(C)C [Ex. 22, N-(3-hydroxy-6-methoxy-2,4,5-trimethylbenzyl)-N-isopropyl-2-(4-hydroxy-2-isopropyl-5-methylphenoxy)ethylamine] | 7.5

Row | Compound | pA2 value
22 | CCOc1c(C)c(C)c(O)c(C)c1CN(CCOc1cc(C)c(O)cc1C(C)C)C(C)C [Ex. 30, N-(2-ethoxy-5-hydroxy-3,4,6-trimethylbenzyl)-N-isopropyl-2-(4-hydroxy-2-isopropyl-5-methylphenoxy)ethylamine] | 7.2
23 | Cc1cc(OCCN(C)Cc2c(C)c(O)c(C)c(C)c2OCCO)c(C(C)C)cc1O [Ex. 2, N-{3-hydroxy-6-(2-hydroxyethoxy)-2,4,5-trimethylbenzyl}-N-methyl-2-(4-hydroxy-2-isopropyl-5-methylphenoxy)ethylamine] | 8.1
24 | COc1c(C)c(C)c(O)c(C)c1CNCCOc1cc(C)c(NC(C)=O)cc1C(C)C [Ex. 3, N-(3-hydroxy-6-methoxy-2,4,5-trimethylbenzyl)-2-(4-acetylamino-2-isopropyl-5-methylphenoxy)ethylamine] | 8.2
25 | COCCN(CCOc1cc(C)c(O)cc1C(C)C)Cc1c(C)c(O)c(C)c(C)c1OC [Ex. 23, N-(3-hydroxy-6-methoxy-2,4,5-trimethylbenzyl)-N-(2-methoxyethyl)-2-(4-hydroxy-2-isopropyl-5-methylphenoxy)ethylamine] | 7.6
26 | COc1c(C)c(C)c(OC)c(CN(C)CCOc2cc(C)c(NC(C)=O)cc2C(C)C)c1C [Ex. 10, N-(2,5-dimethoxy-3,4,6-trimethylbenzyl)-N-methyl-2-(4-acetylamino-2-isopropyl-5-methylphenoxy)ethylamine] | 7.4
27 | CCCOc1c(C)c(C)c(O)c(C)c1CN(C)CCOc1cc(C)c(O)cc1C(C)C [Ex. 24, N-(3-hydroxy-6-propoxy-2,4,5-trimethylbenzyl)-N-methyl-2-(4-hydroxy-2-isopropyl-5-methylphenoxy)ethylamine] | 8.3
28 | COc1c(C)c(C)c(OC(C)C)c(C)c1CN(C)CCOc1cc(C)ccc1C(C)C [Ex. 14, N-(3-isopropoxy-6-methoxy-2,4,5-trimethylbenzyl)-N-methyl-2-(2-isopropyl-5-methylphenoxy)ethylamine] | 7.6
29 | COc1c(C)c(C)c(OC)c(CN(CCOc2cc(C)ccc2C(C)C)C(C)=O)c1C [Ex. 8, N-{2-(2-isopropyl-5-methylphenoxy)ethyl}-N-(2,5-dimethoxy-3,4,6-trimethylbenzyl)acetamide] | 7.3
30 | CCOc1c(C)c(C)c(O)c(C)c1CN(C)CCOc1cc(C)c(O)cc1C(C)C [Ex. 4, N-(2-ethoxy-5-hydroxy-3,4,6-trimethylbenzyl)-N-methyl-2-(4-hydroxy-2-isopropyl-5-methylphenoxy)ethylamine] | 8.5
31 | COc1c(C)c(C)c(O)c(C)c1CN(C)CCOc1cc(C)c(C(C)=O)cc1C(C)C [Ex. 9, N-(3-hydroxy-6-methoxy-2,4,5-trimethylbenzyl)-N-methyl-2-(4-acetyl-2-isopropyl-5-methylphenoxy)ethylamine] | 7.5
32 | COc1c(C)c(C)c(O)c(C)c1CN(C)CCOc1cc(C)ccc1C(C)C [Ex. 12, N-(3-hydroxy-6-methoxy-2,4,5-trimethylbenzyl)-N-methyl-2-(2-isopropyl-5-methylphenoxy)ethylamine] | 8.1
33 | CCOc1c(C)c(C)c(OCc2ccccc2)c(CNCCOc2cc(C)ccc2C(C)C)c1C [Ex. 20, N-(2-benzyloxy-5-ethoxy-3,4,6-trimethylbenzyl)-2-(2-isopropyl-5-methylphenoxy)ethylamine] | 7.2
34 | CC(=O)Oc1cc(C(C)C)c(OCCN(C)C)cc1C [moxisylyte hydrochloride, reference compound] | 7.6
35 | CCOc1c(C)c(C)c(OC(C)=O)c(C)c1CN(C)CCOc1cc(C)c(OC(C)=O)cc1C(C)C [Ex. 5, N-(3-acetoxy-6-ethoxy-2,4,5-trimethylbenzyl)-N-methyl-2-(4-acetoxy-2-isopropyl-5-methylphenoxy)ethylamine] | 8.3
36 | COc1c(C)c(C)c(O)c(C)c1CNCCOc1cc(C)c(O)cc1C(C)C [Ex. 21, N-(3-hydroxy-6-methoxy-2,4,5-trimethylbenzyl)-2-(4-hydroxy-2-isopropyl-5-methylphenoxy)ethylamine] | 9.8
37 | Cc1ccc(C(C)C)c(OCCN(C)Cc2c(C)c(O)c(C)c(C)c2OCCO)c1 [Ex. 16, N-{3-hydroxy-6-(2-hydroxyethoxy)-2,4,5-trimethylbenzyl}-N-methyl-2-(2-isopropyl-5-methylphenoxy)ethylamine] | 7.6
